Measurements: patent US20230414826A1, “FIBRIN HYDROGELS” (Mayo Foundation for Medical Education and Research, priority 2020, published 2023)

Target: T1, fibrin gels (Homo sapiens, UniProt P02671+P02675+P02679)
T1 sequence (P02671 20-644 isoform P02671-2 limits assumed): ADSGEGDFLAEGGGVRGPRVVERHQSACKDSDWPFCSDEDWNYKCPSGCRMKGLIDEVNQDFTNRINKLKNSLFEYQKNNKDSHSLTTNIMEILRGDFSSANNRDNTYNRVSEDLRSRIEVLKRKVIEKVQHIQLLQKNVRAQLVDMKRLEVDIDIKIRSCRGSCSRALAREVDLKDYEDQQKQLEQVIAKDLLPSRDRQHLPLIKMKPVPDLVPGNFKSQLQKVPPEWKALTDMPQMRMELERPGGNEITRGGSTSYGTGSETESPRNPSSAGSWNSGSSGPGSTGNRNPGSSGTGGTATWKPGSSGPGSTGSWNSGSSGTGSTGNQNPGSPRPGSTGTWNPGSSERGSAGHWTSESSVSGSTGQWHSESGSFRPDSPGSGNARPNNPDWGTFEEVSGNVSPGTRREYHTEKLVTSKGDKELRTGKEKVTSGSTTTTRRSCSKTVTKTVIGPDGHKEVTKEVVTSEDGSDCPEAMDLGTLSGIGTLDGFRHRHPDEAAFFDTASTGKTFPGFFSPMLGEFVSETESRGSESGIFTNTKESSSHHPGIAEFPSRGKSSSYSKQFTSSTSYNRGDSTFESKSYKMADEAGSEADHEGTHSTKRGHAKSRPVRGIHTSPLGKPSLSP
T1 sequence (P02675 45-491 limits assumed): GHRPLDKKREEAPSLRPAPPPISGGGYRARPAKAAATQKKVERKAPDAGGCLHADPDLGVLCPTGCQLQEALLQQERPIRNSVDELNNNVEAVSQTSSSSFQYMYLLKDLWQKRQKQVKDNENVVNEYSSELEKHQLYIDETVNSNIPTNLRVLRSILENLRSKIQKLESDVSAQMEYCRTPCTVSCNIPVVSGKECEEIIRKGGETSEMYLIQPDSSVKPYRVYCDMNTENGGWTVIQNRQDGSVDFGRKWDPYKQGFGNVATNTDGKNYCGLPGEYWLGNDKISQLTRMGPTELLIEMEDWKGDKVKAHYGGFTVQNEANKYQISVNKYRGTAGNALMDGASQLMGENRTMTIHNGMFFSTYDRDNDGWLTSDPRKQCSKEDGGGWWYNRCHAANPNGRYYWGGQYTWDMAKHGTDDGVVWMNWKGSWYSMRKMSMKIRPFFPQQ
T1 sequence (P02679 27-437 isoform P02679-2 limits assumed): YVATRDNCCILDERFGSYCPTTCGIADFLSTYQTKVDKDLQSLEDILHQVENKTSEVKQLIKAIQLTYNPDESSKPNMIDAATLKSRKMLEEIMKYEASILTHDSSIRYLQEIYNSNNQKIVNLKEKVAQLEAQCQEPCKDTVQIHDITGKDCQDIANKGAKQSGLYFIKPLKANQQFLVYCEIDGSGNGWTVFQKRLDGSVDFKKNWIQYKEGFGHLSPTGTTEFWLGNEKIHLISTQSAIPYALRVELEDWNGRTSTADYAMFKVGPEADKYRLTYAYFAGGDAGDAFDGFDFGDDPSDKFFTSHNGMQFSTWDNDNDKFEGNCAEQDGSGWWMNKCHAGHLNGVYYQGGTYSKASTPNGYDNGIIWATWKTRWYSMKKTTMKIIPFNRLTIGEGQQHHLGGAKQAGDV
Assay: Fibrin gel degradation with plasminogen and tissue plasminogen activator, thickness by OCT
Details: 1.6 U/mL plasminogen and 17,000 U/mL tPA in PBS, 37° C., gels with 0.12% dye, n=3
Experimental: Fibrin gels were cast as described in the Electron Microscopy section above and hydrated in PBS. A punch was used to generate 5.0 mm×1.5 mm gels. The measured thickness of all the gels was 309±69 μm.
The fibrin gels were then submerged in a PBS solution with 1.6 U/mL plasminogen (Sigma-Aldrich; St Louis, MO) and 17,000 U/mL tissue plasminogen activator (Sigma-Aldrich) in a glass-bottom petri dish (Mattek) and incubated at 37° C. to initiate degradation as described elsewhere (see, e.g., Gandhi et al., 2018 Acta Biomater., 67:134-46). Fibrin gel thickness was monitored over time by imaging with an Envisu R2110 (Leica; Wetzlar, Germany) optical coherence tomograph (OCT) and quantified using the caliper tool within the accompanying InVivoVue software (Leica). Gel thickness was continually measured every 10 minutes until no physical evidence of the insoluble gel remained. The thickness of a gel was measured at 3 different locations (left, middle, right) on each cross-section. The measure at each location was normalized to its initial value and then averaged.
Fibrin gels produced using PBS, TB, or EB with a geometry of 1.5 mm wide×5.0 mm long×0.2 mm thick were generated. Gels were hydrated in PBS prior to incubation in a solution of tissue plasminogen activator (tPA) and plasminogen (P) at 37° C. […]

Row | Compound | degradation time
1 | Cc1cc(-c2ccc(/N=N/c3ccc4c(S(=O)(=O)O)cc(S(=O)(=O)O)c(N)c4c3O)c(C)c2)ccc1/N=N/c1ccc2c(S(=O)(=O)O)cc(S(=O)(=O)O)c(N)c2c1O [EB, Evans Blue] | 78 ± 37 min
2 | Cc1cc(-c2ccc(/N=N/c3c(S(=O)(=O)O)cc4cc(S(=O)(=O)O)cc(N)c4c3O)c(C)c2)ccc1/N=N/c1c(S(=O)(=O)O)cc2cc(S(=O)(=O)O)cc(N)c2c1O [TB, Trypan Blue] | 33 ± 18 min
